Read-outs that look alike come from different tables or passages of the source.
Tests used:
Type in all cases: binding
recombinant lcFABP [1] = biological target: T1, recombinant lcFABP (Luciola cerata, UniProt G1FKW0); test: ANS fluorescence titration of recombinant lcFABP
Protocol: (§1) The binding property of lcFABP to fatty acids was analyzed by a fluorescence displacement assay using 1-anilinonaphthalene-8-sulfonic acid (ANS) as fluorescent probe. This assay utilizes ANS's property of emitting intense fluorescence when bind to the hydrophobic region of protein non-covalently. The displacement of ANS from ligand binding site of FABPs by fatty acid or other hydrophobic ligand will result in the reduction of fluorescence. In this way, the apparent inhibition constants (Ki) of fatty acid or hydrophobic ligand to FABPs can be measured, [25]-[27].
Recombinant lcFABP was overexpressed in E. coli cells, and purified by a two-step chromatography for ligand binding assay. […]
Fatty acid binding of recombinant lcFABP was assessed by a competitive displacement assay using fluorescence probe ANS as described previously, [27]. F7000 fluorescence spectrophotometer (Hitachi, Tokyo, Japan) was used for measuring the ANS fluorescence signal at the emission 470 nm following excitation at 375 nm. […] The apparent dissociation constant (Kd) of ANS-lcFABP complex was measured by nonlinear regression analysis of the binding data as described previously. To evaluated the binding of fatty acids to lcFABP, 2 µM lcFABP was pre-equilibrated with 40 µM ANS for 2 min in assay buffer, and then titrated with increasing concentrations of fatty acids until the reduction of fluorescence became saturate. […]

recombinant lcFABP [2] = biological target: T1, recombinant lcFABP; test: fluorescence (ANS) displacement assay with fatty acids; conditions: for binding strength of lcFABP to ligand (in words): ANS displacement assay, recombinant lcFABP
Protocol: as §1
Recombinant lcFABP was overexpressed in E. coli cells, and purified by a two-step chromatography for ligand binding assay. […] After that, the binding of fatty acid to lcFABP was examined by a competitive displacement titration. […] Conversely, the lcFABP binds moderately to saturated dodecanoic acid (C12:0), monounsaturated oleic acid (C18:1) and polyunsaturated arachidonic acid (C20:4), and poorly to the saturated capric acid (C10:0). These binding studies confirmed that the recombinant lcFABP is a functional protein for fatty acids binding as other reported FABPs, [16].
Fatty acid binding of recombinant lcFABP was assessed by a competitive displacement assay using fluorescence probe ANS as described previously, [27]. F7000 fluorescence spectrophotometer (Hitachi, Tokyo, Japan) was used for measuring the ANS fluorescence signal at the emission 470 nm following excitation at 375 nm. All measurements were carried out in an assay buffer contained 50 mM sodium phosphate, pH 7.5, 140 mM KCl, 5 mM β-ME at 25°C under a dim light. ANS and various fatty acids were prepared freshly in absolute ethanol before used. To evaluate ANS-lcFABP interaction, 2 µM lcFABP in a final volume of 2 ml assay buffer was titrated with 1∼2 ul of ANS from a initial concentration of 0 µM to 80 µM. The apparent dissociation constant (Kd) of ANS-lcFABP complex was measured by nonlinear regression analysis of the binding data as described previously. To evaluated the binding of fatty acids to lcFABP, 2 µM lcFABP was pre-equilibrated with 40 µM ANS for 2 min in assay buffer, and then titrated with increasing concentrations of fatty acids until the reduction of fluorescence became saturate. The apparent inhibition constant (Ki) of each fatty acid to ANS-lcFABP complex was calculated from the displacement data as described previously. All binding experiments were repeated at least three times.

recombinant lcFABP [3] = biological target: T1, recombinant lcFABP; test: time-dependent ANS displacement assay with D-luciferin and palmitic acid (Fig. S2)
Protocol: In this study, we also investigated whether lcFABP could bind firefly luciferin using ANS displacement assay (Fig. S2).
Fluorescence change was recorded after successively adding lcFABP (until final concentration become 2 µM at 100 s), D-luciferin (Luc; 1 µM at 200 s and 2 µM at 300 s) or palmitic acid (PA; 1 µM at 200 s and 2 µM at 300 s), and the competitive palmitic acid (2 µM at 400 s) or D-luciferin (2 µM at 400 s) to into the ANS (40 µM) containing buffer using time-dependent model. The results have been subtracted of D-luciferin's intrinsic-fluorescence. All experiments are monitored under a detected wavelength of Ex: 370 nm and Em: 450 nm to reduce the interference of D-luciferin intrinsic-fluorescence to the assay. (TIF) Click here for additional data file.

[4] = apparent inhibition constant, 2 µM lcFABP pre-equilibrated with 40 µM ANS, pH 7.5, 25°C, at least three repeats, read-out: Ki

T1 sequence (G1FKW0 entry or part of it): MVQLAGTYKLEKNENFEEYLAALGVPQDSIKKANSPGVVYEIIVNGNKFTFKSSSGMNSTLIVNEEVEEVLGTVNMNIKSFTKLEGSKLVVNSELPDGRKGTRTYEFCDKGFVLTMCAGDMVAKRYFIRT

| SMILES | Ki (recombinant lcFABP [2]) [µM] | binding strength of lcFABP to ligand (in words) (recombinant lcFABP [2]) | other results |
| --- | --- | --- | --- |
| O=S(=O)(O)c1cccc2cccc(Nc3ccccc3)c12 [ANS, 1-anilinonaphthalene-8-sulfonic acid] | – | – | Kd (recombinant lcFABP [1]): 11.2 ± 1.5 µM |
| CCCCC/C=C\C/C=C\C/C=C\C/C=C\CCCC(=O)O [Arachidonic acid] | 1.59 ± 0.16 | moderately | – |
| CCCCCCCCCC(=O)O [Capric acid] | – | poorly | Ki (recombinant lcFABP [2]; [4]): 118 ± 6.24 µM |
| CCCCCCCCCCCC(=O)O [Dodecanoic acid] | 1.67 ± 0.15 | moderately | – |
| CCCCCCCCCCCCCC(=O)O [Myristic acid] | 0.64 ± 0.14 | strongly | – |
| CCCCCCCC/C=C\CCCCCCCC(=O)O [Oleic acid] | 1 ± 0.17 | moderately | – |
| CCCCCCCCCCCCCCCC(=O)O [Palmitic acid] | 0.55 ± 0.12 | strongly | reduction of fluorescence (recombinant lcFABP [3]; 2 µM lcFABP, 40 µM ANS, ligand added at 1-2 µM, luciferin intrinsic fluorescence subtracted, Ex 370 nm, Em 450 nm): ≤ 40% |
| CCCCCCCCCCCCCCCCCC(=O)O [Steric acid] | – | strongly | Ki (recombinant lcFABP [2]; [4]): 0.25 ± 0.01 µM |
| O=C(O)[C@H]1CSC(c2nc3ccc(O)cc3s2)=N1 [luciferin, D-luciferin] | – | – | interaction of lcFABP with ligand (in words) (recombinant lcFABP [3]): weakly; reduction of fluorescence (recombinant lcFABP [3]): about 12% |

— paper PMC3248459, “A Photocytes-Associated Fatty Acid-Binding Protein from the Light Organ of Adult Taiwanese Firefly, Luciola cerata” (PLoS ONE, 2011)
